Calls of active or inactive are those of the source.
What was measured:
Format in all cases: functional, cell-based
P388 = assay: Cytotoxicity against mouse P388 cells
A549 = assay: Cytotoxicity against human A549 cells
HT-29 = assay: Cytotoxicity against human HT-29 cells
SK-MEL-28 = assay: Cytotoxicity against human SK MEL28 cells

Measured: Activity

CC(=O)O[C@H]1CC[C@]2(CO2)[C@@H]2[C@H](OC(C)=O)[C@@]3(O)[C@H](/C=C(/C)[C@H](OC(C)=O)C[C@H](OC(C)=O)[C@@]12C)OC(=O)[C@@H]3C
inactive: all assays above

C=C1[C@H](Cl)[C@@H]2OC(=O)[C@H](C)[C@]23O[C@@H]1[C@H](OC(C)=O)[C@H](OC(C)=O)[C@@]1(C)[C@@H](OC(C)=O)CC[C@]2(CO2)[C@@H]1[C@@H]3OC(C)=O
inactive: all assays above

C=C1CC[C@H](OC(C)=O)[C@]2(C)[C@@H](OC(C)=O)C[C@@H](O)/C(C)=C\[C@@H]3OC(=O)[C@H](C)[C@]3(O)[C@@H](OC(C)=O)[C@@H]12
inactive: all assays above

C=C1[C@H]2C[C@@H](OC(C)=O)[C@@]3(C)[C@@H](OC(C)=O)CC[C@]4(CO4)[C@@H]3[C@@H](OC(C)=O)[C@]3(O2)[C@@H](C)C(=O)O[C@H]3[C@H]1Cl
inactive: all assays above

CC(=O)O[C@H]1CC/C(C)=C\[C@@H]2OC(=O)[C@H](C)[C@@]2(O)[C@@H](OC(C)=O)[C@H]2[C@]3(CC[C@H](OC(C)=O)[C@]12C)CO3
inactive: all assays above

C=C1CC[C@H](OC(C)=O)[C@@]2(C)[C@H]1[C@@H](OC(C)=O)[C@@]13O[C@](O)(C[C@H]2OC(C)=O)C(=C)C[C@@H]1OC(=O)[C@@H]3C
inactive: all assays above

CC(=O)O[C@H]1CC[C@]2(CO2)[C@@H]2[C@H](OC(C)=O)[C@@]3(O)[C@H](/C=C(/C)[C@H](O)C[C@H](OC(C)=O)[C@@]12C)OC(=O)[C@@H]3C
inactive: all assays above

C=C1CC[C@H](OC(C)=O)[C@]2(C)[C@@H](OC(C)=O)C[C@@H](OC(C)=O)/C(C)=C\[C@@H]3OC(=O)[C@H](C)[C@]3(O)[C@@H](OC(C)=O)[C@@H]12
inactive: all assays above

Source: ChEMBL document CHEMBL1158013, “Absolute structures of new briarane diterpenoids from junceella fragilis” (J Nat Prod, 1999)
